Reference: ChEMBL document CHEMBL1201862, “PubChem BioAssay data set” (2004)
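Dose response: 5 concentrations. Exposure: 48 h. Format: 96-well plates. Endpoint: linear interpolation; highest concentration if not reached. GI50 = concentration required for 50% inhibition of growth.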 Calls of active or inactive are those of the source. Rule as the data show it: active = GI50 up to about 1.1 µM and inactive = higher.

Experiments:
Test in all cases: inhibition of tumour cell growth, NCI panel, 48 h
A549 = system: A549
ACHN = system: ACHN
CCRF-CEM = system: CCRF-CEM
HCT-15 = system: HCT-15
HL-60 = system: HL-60
KM12 = system: KM12
M14 = system: M14
MCF7 = system: MCF7
MDA-MB-435 = system: MDA-MB-435
NCI-H460 = system: NCI-H460
NCI/ADR-RES = system: NCI/ADR-RES
PC-3 = system: PC-3
SK-OV-3 = system: SK-OV-3
SNB-19 = system: SNB-19
SNB-75 = system: SNB-75
T47D = system: T47D
UACC-62 = system: UACC-62
MDA-MB-231 = system: MDA-MB-231
RXF 393 = system: RXF 393

Compound	GI50 (A549)	GI50 (ACHN)	GI50 (CCRF-CEM)	GI50 (HCT-15) [µM]	GI50 (HL-60)	GI50 (KM12)	GI50 (M14)	GI50 (MCF7)	GI50 (MDA-MB-435)	GI50 (NCI-H460)	GI50 (NCI/ADR-RES)	GI50 (PC-3)	GI50 (SK-OV-3)	GI50 (SNB-19)	GI50 (SNB-75)	GI50 (T47D)	GI50 (UACC-62)	GI50 (MDA-MB-231)	GI50 (RXF 393)
Cc1ncc([N+](=O)[O-])n1CCNC(=O)CCn1ccnc1[N+](=O)[O-]	> 100 µM (inactive)	> 100 µM (inactive)	> 100 µM (inactive)	> 100	> 100 µM (inactive)	> 100 µM (inactive)	> 100 µM (inactive)	> 100 µM (inactive)	> 100 µM (inactive)	> 100 µM (inactive)	> 100 µM (inactive)	> 100 µM (inactive)	> 100 µM (inactive)	> 100 µM (inactive)	> 100 µM (inactive)	> 100 µM (inactive)	> 100 µM (inactive)	–	–
Nc1nnnn1CCO	> 100 µM (inactive)	> 100 µM (inactive)	–	> 100	–	> 100 µM (inactive)	> 100 µM (inactive)	> 100 µM (inactive)	> 100 µM (inactive)	> 100 µM (inactive)	> 100 µM (inactive)	> 100 µM (inactive)	> 100 µM (inactive)	> 100 µM (inactive)	> 100 µM (inactive)	> 100 µM (inactive)	> 100 µM (inactive)	> 100 µM (inactive)	> 100 µM (inactive)
O=C1C2CCCC2N1Cc1ccccc1 (configuration not stated)	–	> 100 µM (inactive)	> 100 µM (inactive)	> 100	> 100 µM (inactive)	> 100 µM (inactive)	13.6 µM (inactive)	> 100 µM (inactive)	> 100 µM (inactive)	> 100 µM (inactive)	> 100 µM (inactive)	–	> 100 µM (inactive)	–	49.5 µM (inactive)	> 100 µM (inactive)	> 100 µM (inactive)	–	> 100 µM (inactive)
C=C(Nc1nc2ccc(C)cc2s1)C(=O)C(CC)C(=O)C(CC)CC1C(=O)NC(=O)NC1=O (configuration not stated)	> 100 µM (inactive)	> 100 µM (inactive)	> 100 µM (inactive)	> 100	> 100 µM (inactive)	> 100 µM (inactive)	> 100 µM (inactive)	> 100 µM (inactive)	> 100 µM (inactive)	> 100 µM (inactive)	> 100 µM (inactive)	> 100 µM (inactive)	> 100 µM (inactive)	> 100 µM (inactive)	> 100 µM (inactive)	–	> 100 µM (inactive)	> 100 µM (inactive)	> 100 µM (inactive)
Cc1nn(C(=O)Cc2ccccc2)c2c1C(c1ccc(N(C)C)cc1)SC(=N)N2 (configuration not stated)	> 100 µM (inactive)	> 100 µM (inactive)	> 100 µM (inactive)	> 100	> 100 µM (inactive)	> 100 µM (inactive)	> 100 µM (inactive)	> 100 µM (inactive)	> 100 µM (inactive)	> 100 µM (inactive)	–	> 100 µM (inactive)	> 100 µM (inactive)	> 100 µM (inactive)	12.4 µM (inactive)	> 100 µM (inactive)	45.6 µM (inactive)	> 100 µM (inactive)	–
CCOC(=O)/C(=C/Nc1c(C)n(C)n(-c2ccccc2)c1=O)C(C)=O	> 100 µM (inactive)	> 100 µM (inactive)	> 100 µM (inactive)	> 100	> 100 µM (inactive)	> 100 µM (inactive)	> 100 µM (inactive)	> 100 µM (inactive)	> 100 µM (inactive)	–	> 100 µM (inactive)	> 100 µM (inactive)	> 100 µM (inactive)	–	> 100 µM (inactive)	–	> 100 µM (inactive)	> 100 µM (inactive)	> 100 µM (inactive)
CCOC(=O)C(CCc1ncnc2c1ncn2Cc1ccccc1)(CCc1ncnc2c1ncn2Cc1ccccc1)C(=O)OCC	39.2 µM (inactive)	81.8 µM (inactive)	–	52.7	38.3 µM (inactive)	46.9 µM (inactive)	54.6 µM (inactive)	37.9 µM (inactive)	52.1 µM (inactive)	40.4 µM (inactive)	49.7 µM (inactive)	27 µM (inactive)	–	> 100 µM (inactive)	–	–	26.2 µM (inactive)	53.3 µM (inactive)	32.4 µM (inactive)
CCOc1cc(NC(C)=O)ccc1C(=O)NN1C(=O)/C(=C/c2ccco2)N=C1c1ccccc1	> 100 µM (inactive)	> 100 µM (inactive)	> 100 µM (inactive)	> 100	> 100 µM (inactive)	> 100 µM (inactive)	> 100 µM (inactive)	> 100 µM (inactive)	> 100 µM (inactive)	> 100 µM (inactive)	> 100 µM (inactive)	> 100 µM (inactive)	> 100 µM (inactive)	> 100 µM (inactive)	> 100 µM (inactive)	> 100 µM (inactive)	> 100 µM (inactive)	–	> 100 µM (inactive)
CCc1nc2ccc(/N=N/N(C)C)cc2[nH]1	> 100 µM (inactive)	> 100 µM (inactive)	> 100 µM (inactive)	> 100	–	> 100 µM (inactive)	> 100 µM (inactive)	–	> 100 µM (inactive)	> 100 µM (inactive)	> 100 µM (inactive)	> 100 µM (inactive)	–	> 100 µM (inactive)	> 100 µM (inactive)	> 100 µM (inactive)	> 100 µM (inactive)	> 100 µM (inactive)	45.3 µM (inactive)
CCc1ccc(/C(C)=N/NC(N)=S)cc1	81.1 µM (inactive)	–	–	–	–	> 100 µM (inactive)	> 100 µM (inactive)	–	–	–	–	–	> 100 µM (inactive)	> 100 µM (inactive)	–	–	31.8 µM (inactive)	–	47.3 µM (inactive)
NC(c1ccccc1)(C(F)(F)F)P1(=O)OC(=O)c2ccccc2O1 (configuration not stated)	> 100 µM (inactive)	> 100 µM (inactive)	–	> 100	–	> 100 µM (inactive)	> 100 µM (inactive)	> 100 µM (inactive)	> 100 µM (inactive)	> 100 µM (inactive)	> 100 µM (inactive)	> 100 µM (inactive)	26.9 µM (inactive)	> 100 µM (inactive)	> 100 µM (inactive)	> 100 µM (inactive)	> 100 µM (inactive)	> 100 µM (inactive)	> 100 µM (inactive)
Cc1cc(=O)nc(S(=O)(=O)NC(=S)Nc2ccc(Br)cc2)[nH]1	–	> 100 µM (inactive)	–	75.9	> 100 µM (inactive)	–	> 100 µM (inactive)	–	> 100 µM (inactive)	> 100 µM (inactive)	> 100 µM (inactive)	> 100 µM (inactive)	> 100 µM (inactive)	> 100 µM (inactive)	> 100 µM (inactive)	> 100 µM (inactive)	> 100 µM (inactive)	> 100 µM (inactive)	20.5 µM (inactive)
CC(=O)N(O)c1ccc(-c2nc3ccccc3s2)cc1	42.6 µM (inactive)	47.5 µM (inactive)	> 100 µM (inactive)	> 100	–	38.2 µM (inactive)	85.7 µM (inactive)	–	86.9 µM (inactive)	46.9 µM (inactive)	28.4 µM (inactive)	> 100 µM (inactive)	–	60 µM (inactive)	33 µM (inactive)	32.9 µM (inactive)	> 100 µM (inactive)	49.7 µM (inactive)	61.8 µM (inactive)
CN(N)/N=N/c1[nH]cnc1[N+](=O)[O-]	> 100 µM (inactive)	> 100 µM (inactive)	5.01 µM (inactive)	> 100	2.99 µM (inactive)	> 100 µM (inactive)	> 100 µM (inactive)	–	> 100 µM (inactive)	> 100 µM (inactive)	35.4 µM (inactive)	> 100 µM (inactive)	> 100 µM (inactive)	–	> 100 µM (inactive)	20.6 µM (inactive)	> 100 µM (inactive)	21.7 µM (inactive)	> 100 µM (inactive)
CN/N=C(/C=C/c1ccccc1)C(C)C	> 100 µM (inactive)	> 100 µM (inactive)	> 100 µM (inactive)	> 100	> 100 µM (inactive)	> 100 µM (inactive)	> 100 µM (inactive)	> 100 µM (inactive)	> 100 µM (inactive)	> 10 µM (inactive)	> 100 µM (inactive)	> 100 µM (inactive)	> 100 µM (inactive)	> 100 µM (inactive)	> 100 µM (inactive)	86.3 µM (inactive)	> 100 µM (inactive)	–	> 100 µM (inactive)
C=C(Cl)C(C)(Cl)CCC(Br)C(C)(C)Cl (configuration not stated)	29.9 µM (inactive)	17.5 µM (inactive)	19.4 µM (inactive)	–	37.1 µM (inactive)	21.9 µM (inactive)	20 µM (inactive)	16.6 µM (inactive)	19.4 µM (inactive)	26 µM (inactive)	29.4 µM (inactive)	25.6 µM (inactive)	12.7 µM (inactive)	51.5 µM (inactive)	12.3 µM (inactive)	–	14.9 µM (inactive)	15.2 µM (inactive)	13.9 µM (inactive)
CC(C(=O)N1C(=O)N(C(=O)[C@H](C)C(O)c2ccccc2)[C@H](c2ccccc2)[C@H]1c1ccccc1)[C@@H](O)c1ccccc1 (some centres not stated)	33 µM (inactive)	30.5 µM (inactive)	–	45.7	22 µM (inactive)	31.2 µM (inactive)	28.5 µM (inactive)	26.6 µM (inactive)	26.2 µM (inactive)	22.4 µM (inactive)	–	9.79 µM (inactive)	83.6 µM (inactive)	37.2 µM (inactive)	28 µM (inactive)	68.9 µM (inactive)	14.6 µM (inactive)	19.5 µM (inactive)	–
